From patent US6358885B1, “Substituted phenylheterocyclic herbicides” (Mississippi State University, priority 1992, dated 2002)

Key:
crabgrass = assay: Test B preemergence/postemergence greenhouse plant response rating 0 to 10; type: in vivo, Digitaria spp.; conditions: 0 to 10 scale
In short: (§1)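 Test chemicals, dissolved in a non-phytotoxic solvent, were applied to soil at planting and, at the same time, over foliage of seedlings at the one to four leaf stage.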

morningglory [1] = assay: as above; type: in vivo, Ipomoea hederacea; conditions: 0 to 10 scale
In short: as §1

wild buckwheat = assay: Test C preemergence/postemergence greenhouse plant response rating 0 to 100; type: in vivo, Polygonum convolvulus; conditions: POSTEMERGENCE
In short: (§2)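 Compounds in non-phytotoxic solvent applied preemergence to sandy loam one day after planting, postemergence at the 1–4 leaf stage, or to ~2.5 cm floodwater over silt loam.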

chickweed [2] = assay: as above; type: in vivo, Stellaria media; conditions: POSTEMERGENCE
In short: as §2

wheat = assay: Test B preemergence/postemergence greenhouse plant response rating 0 to 10; type: in vivo, Triticum aestivum; conditions: 0 to 10 scale
In short: as §1

morningglory [3] = assay: Test C preemergence/postemergence greenhouse plant response rating 0 to 100; type: in vivo, Ipomoea hederacea; conditions: POSTEMERGENCE
In short: as §2

soybean [4] = assay: as above; type: in vivo, Glycine max; conditions: POSTEMERGENCE
In short: as §2

rape = assay: Test B preemergence/postemergence greenhouse plant response rating 0 to 10; type: in vivo, Brassica napus; conditions: 0 to 10 scale
In short: as §1

wild oat = assay: as above; type: in vivo, Avena fatua; conditions: 0 to 10 scale
In short: as §1

downy brome = assay: Test C preemergence/postemergence greenhouse plant response rating 0 to 100; type: in vivo, Bromus tectorum; conditions: POSTEMERGENCE
In short: as §2

corn = assay: Test B preemergence/postemergence greenhouse plant response rating 0 to 10; type: in vivo, Zea mays; conditions: 0 to 10 scale
In short: as §1

barley = assay: Test C preemergence/postemergence greenhouse plant response rating 0 to 100; type: in vivo, Hordeum vulgare; conditions: POSTEMERGENCE
In short: as §2

purple nutsedge = assay: Test B preemergence/postemergence greenhouse plant response rating 0 to 10; type: in vivo, Cyperus rotundus; conditions: 0 to 10 scale
In short: as §1

soybean [5] = assay: as above; type: in vivo, Glycine max; conditions: 0 to 10 scale
In short: as §1

sorghum = assay: as above; type: in vivo, Sorghum bicolor; conditions: 0 to 10 scale
In short: as §1

chickweed [6] = assay: as above; type: in vivo, Stellaria media; conditions: 0 to 10 scale
In short: as §1

bedstraw = assay: Test C preemergence/postemergence greenhouse plant response rating 0 to 100; type: in vivo, Galium aparine; conditions: POSTEMERGENCE
In short: as §2

umbrella sedge = assay: Test C flood test plant response rating 0 to 100; type: in vivo, Cyperus difformis
In short: as §2

For `COCN1C(=O)COc2cc(F)c(-c3nn4c(c3Cl)CCCC4)cc21` [Compound 55], the “Plant response rating, Crabgrass” value (crabgrass; POSTEMERGENCE, Rate 10 g/ha) was 2, the “Plant response rating, Crabgrass” value (crabgrass; POSTEMERGENCE, Rate 50 g/ha) was 3 and the “Plant response rating, Crabgrass” value (crabgrass; PREEMERGENCE, Rate 10 g/ha) was 0. For the same compound, the “Plant response rating, Crabgrass” value (crabgrass; PREEMERGENCE, Rate 50 g/ha) was 6, the “Plant response rating, Morningglory” value (morningglory [1]; POSTEMERGENCE, Rate 10 g/ha) was 10 and the “Plant response rating, Morningglory” value (morningglory [1]; POSTEMERGENCE, Rate 50 g/ha) was 10. For the same compound, the “Plant response rating, Morningglory” value (morningglory [1]; PREEMERGENCE, Rate 50 g/ha) was 8, the “Plant response rating, Wild buckwheat” value (wild buckwheat; 62 g/ha, 0 to 100 scale) was 100 and the “Plant response rating (0 to 100), Wild buckwheat” value (wild buckwheat; Rate 1 g/ha) was 60. The “Plant response rating (0 to 100), Wild buckwheat” value (wild buckwheat; Rate 4 g/ha) was 100, the “Plant response rating (0 to 100), Wild buckwheat” value (wild buckwheat; Rate 16 g/ha) was 100 and the “Plant response rating, Chickweed” value (chickweed [2]; 62 g/ha, 0 to 100 scale) was 100. The “Plant response rating (0 to 100), Chickweed” value (chickweed [2]; Rate 1 g/ha) was 30, the “Plant response rating (0 to 100), Chickweed” value (chickweed [2]; Rate 4 g/ha) was 70 and the “Plant response rating (0 to 100), Chickweed” value (chickweed [2]; Rate 16 g/ha) was 100. For the same compound, the “Plant response rating, Wheat” value (wheat; POSTEMERGENCE, Rate 10 g/ha) was 8, the “Plant response rating, Wheat” value (wheat; POSTEMERGENCE, Rate 50 g/ha) was 6 and the “Plant response rating, Wheat” value (wheat; PREEMERGENCE, Rate 50 g/ha) was 4. The “Plant response rating, Morningglory” value (morningglory [3]; 62 g/ha, 0 to 100 scale) was 100, the “Plant response rating (0 to 100), Morningglory” value (morningglory [3]; Rate 1 g/ha) was 80 and the “Plant response rating (0 to 100), Morningglory” value (morningglory [3]; Rate 4 g/ha) was 100. For the same compound, the “Plant response rating (0 to 100), Morningglory” value (morningglory [3]; Rate 16 g/ha) was 100, the “Plant response rating, Soybean” value (soybean [4]; 62 g/ha, 0 to 100 scale) was 95 and the “Plant response rating (0 to 100), Soybean” value (soybean [4]; Rate 1 g/ha) was 40. For the same compound, the “Plant response rating (0 to 100), Soybean” value (soybean [4]; Rate 4 g/ha) was 70, the “Plant response rating (0 to 100), Soybean” value (soybean [4]; Rate 16 g/ha) was 90 and the “Plant response rating, Rape” value (rape; POSTEMERGENCE, Rate 10 g/ha) was 10. For the same compound, the “Plant response rating, Rape” value (rape; POSTEMERGENCE, Rate 50 g/ha) was 10, the “Plant response rating, Rape” value (rape; PREEMERGENCE, Rate 50 g/ha) was 6 and the “Plant response rating, Wild oat” value (wild oat; POSTEMERGENCE, Rate 10 g/ha) was 6. For the same compound, the “Plant response rating, Wild oat” value (wild oat; POSTEMERGENCE, Rate 50 g/ha) was 7, the “Plant response rating, Wild oat” value (wild oat; PREEMERGENCE, Rate 50 g/ha) was 9 and the “Plant response rating Downy Brome” value (downy brome; 62 g/ha, 0 to 100 scale) was 70. The “Plant response rating (0 to 100), Downy Brome” value (downy brome; Rate 1 g/ha) was 30, the “Plant response rating (0 to 100), Downy Brome” value (downy brome; Rate 4 g/ha) was 40 and the “Plant response rating (0 to 100), Downy Brome” value (downy brome; Rate 16 g/ha) was 60. For the same compound, the “Plant response rating, Corn” value (corn; POSTEMERGENCE, Rate 10 g/ha) was 3, the “Plant response rating, Corn” value (corn; POSTEMERGENCE, Rate 50 g/ha) was 5 and the “Plant response rating, Corn” value (corn; PREEMERGENCE, Rate 50 g/ha) was 1. For the same compound, the “Plant response rating Barley Igri” value (barley; 62 g/ha, 0 to 100 scale) was 50, the “Plant response rating (0 to 100), Barley Igri” value (barley; Rate 1 g/ha) was 20 and the “Plant response rating (0 to 100), Barley Igri” value (barley; Rate 4 g/ha) was 30. The “Plant response rating (0 to 100), Barley Igri” value (barley; Rate 16 g/ha) was 40, the “Plant response rating, Nutsedge” value (purple nutsedge; POSTEMERGENCE, Rate 10 g/ha) was 2 and the “Plant response rating, Nutsedge” value (purple nutsedge; POSTEMERGENCE, Rate 50 g/ha) was 2. For the same compound, the “Plant response rating, Nutsedge” value (purple nutsedge; PREEMERGENCE, Rate 50 g/ha) was 0, the “Plant response rating, Soybean” value (soybean [5]; POSTEMERGENCE, Rate 10 g/ha) was 7 and the “Plant response rating, Soybean” value (soybean [5]; POSTEMERGENCE, Rate 50 g/ha) was 9. For the same compound, the “Plant response rating, Soybean” value (soybean [5]; PREEMERGENCE, Rate 50 g/ha) was 0, the “Plant response rating, Sorghum” value (sorghum; POSTEMERGENCE, Rate 10 g/ha) was 3 and the “Plant response rating, Sorghum” value (sorghum; POSTEMERGENCE, Rate 50 g/ha) was 4. The “Plant response rating, Sorghum” value (sorghum; PREEMERGENCE, Rate 50 g/ha) was 0, the “Plant response rating, Chickweed” value (chickweed [6]; POSTEMERGENCE, Rate 10 g/ha) was 9 and the “Plant response rating, Chickweed” value (chickweed [6]; POSTEMERGENCE, Rate 50 g/ha) was 10. The “Plant response rating, Chickweed” value (chickweed [6]; PREEMERGENCE, Rate 10 g/ha) was 9, the “Plant response rating, Chickweed” value (chickweed [6]; PREEMERGENCE, Rate 50 g/ha) was 10 and the “Plant response rating, Bedstraw” value (bedstraw; 62 g/ha, 0 to 100 scale) was 100. For the same compound, the “Plant response rating (0 to 100), Bedstraw” value (bedstraw; Rate 1 g/ha) was 30, the “Plant response rating (0 to 100), Bedstraw” value (bedstraw; Rate 4 g/ha) was 90 and the “Plant response rating (0 to 100), Bedstraw” value (bedstraw; Rate 16 g/ha) was 100. For the same compound, the “Plant response rating (0 to 100), Umbrella sedge” value (umbrella sedge; POSTEMERGENCE section, flood test, Rate 1 g/ha) was 10, the “Plant response rating (0 to 100), Umbrella sedge” value (umbrella sedge; POSTEMERGENCE section, flood test, Rate 4 g/ha) was 30 and the “Plant response rating (0 to 100), Umbrella sedge” value (umbrella sedge; Rate 16 g/ha, under POSTEMERGENCE head (flood test species)) was 70. The “Plant response rating Umbrella sedge” value (umbrella sedge; flood test species listed under POSTEMERGENCE, 62 g/ha, 0 to 100 scale) was 90.
